Results taken from PubChem BioAssay AID248 (DTP/NCI, 2004).
Toxic doses and inconclusive results are not listed. Rule as the data show it: active = T/C of 150% or more; inactive = T/C below 125%.

Test system: L1210 leukemia ip in BDF1 mice, survival T/C
Assay: NCI In Vivo Anticancer Drug Screen. Data for tumor model L1210 Leukemia (intraperitoneal) in B6D2F1 (BDF1) mice
Settings: endpoint: mean survival time, higher = longer survival
In short: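 Mice bearing the transplanted tumor received compound or vehicle. Survival of the treated group was divided by that of the vehicle-treated control group to give the ratio.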

Measured: T/C

CCOC(=O)C(CCC#N)C1=NC(C)(C)CC(C)O1 (stereo not given)
inactive: dose: 100.0 mg/kg/injection, schedule: Q01DX001 (ip), vehicle: Klucel (hydroxypropylcellulose) (HPC) 97 % of control | dose: 200.0 mg/kg/injection, schedule: Q01DX001 (ip), vehicle: Klucel (hydroxypropylcellulose) (HPC) 101 % of control | dose: 400.0 mg/kg/injection, schedule: Q01DX001 (ip), vehicle: Klucel (hydroxypropylcellulose) (HPC) 103 % of control

O=C(c1cccs1)c1c(C(F)(F)F)oc2c(c1=O)C=CC2
inactive: dose: 100.0 mg/kg/injection, schedule: Q01DX001 (ip), vehicle: carboxymethylcellulose (CMC) 100 % of control | dose: 200.0 mg/kg/injection, schedule: Q01DX001 (ip), vehicle: carboxymethylcellulose (CMC) 87 % of control | dose: 400.0 mg/kg/injection, schedule: Q01DX001 (ip), vehicle: carboxymethylcellulose (CMC) 89 % of control

COc1cc2ccc3c(c2cc1OC)CN1CCc2cc4c(cc2C1C3)OCO4 (stereo not given)
inactive: dose: 100.0 mg/kg/injection, schedule: Q01DX009 (ip), vehicle: saline sonified 93 % of control | dose: 100.0 mg/kg/injection, schedule: Q04DX003 (ip), vehicle: saline sonified 109 % of control | dose: 200.0 mg/kg/injection, schedule: Q01DX009 (ip), vehicle: saline sonified 109 % of control | dose: 200.0 mg/kg/injection, schedule: Q04DX003 (ip), vehicle: saline sonified 98 % of control | dose: 400.0 mg/kg/injection, schedule: Q01DX009 (ip), vehicle: saline sonified 94 % of control | dose: 400.0 mg/kg/injection, schedule: Q04DX003 (ip), vehicle: saline sonified 101 % of control

N#Cc1cc(Cl)c2c(c1Cl)Nc1c(Cl)ccc(Cl)c1S2
inactive: dose: 50.0 mg/kg/injection, schedule: Q01DX001 (ip), vehicle: saline 96 % of control | dose: 100.0 mg/kg/injection, schedule: Q01DX001 (ip), vehicle: saline 96 % of control | dose: 200.0 mg/kg/injection, schedule: Q01DX001 (ip), vehicle: saline 96 % of control | dose: 400.0 mg/kg/injection, schedule: Q01DX001 (ip), vehicle: saline 102 % of control

N#CC12CC3CC(CC(C3)C1)C2
inactive: dose: 5.0 mg/kg/injection, schedule: Q01DX009 (ip), vehicle: saline with Tween-80 104 % of control | dose: 10.0 mg/kg/injection, schedule: Q01DX009 (ip), vehicle: saline with Tween-80 98 % of control | dose: 20.0 mg/kg/injection, schedule: Q01DX001 (ip), vehicle: carboxymethylcellulose (CMC) 96 % of control | dose: 20.0 mg/kg/injection, schedule: Q01DX009 (ip), vehicle: saline with Tween-80 112 % of control | dose: 40.0 mg/kg/injection, schedule: Q01DX001 (ip), vehicle: carboxymethylcellulose (CMC) 95 % of control | dose: 80.0 mg/kg/injection, schedule: Q01DX001 (ip), vehicle: carboxymethylcellulose (CMC) 96 % of control

C[CH2][Sn](/[CH]=C\CO)([CH2]C)[CH2]C
inactive: dose: 0.78 mg/kg/injection, schedule: Q01DX009 (ip), vehicle: saline 86 % of control | dose: 1.56 mg/kg/injection, schedule: Q01DX009 (ip), vehicle: saline 104 % of control | dose: 3.12 mg/kg/injection, schedule: Q01DX009 (ip), vehicle: saline 90 % of control
